Experimental data from patent US20040180104A1, “Herbal composition for preventing and/or treating conditions in associated with depression” (priority 2003, published 2004).

Test system: duration of immobility (despair) in rodents
Assay: Forced Swimming Test (FST)
Type: in vivo
Settings: male BALB mice, imipramine
Experimental: Rodents are placed individually into an transparent acrylic cuboid containing 15 cm (for the mice) or 30 cm (for the rats) of water at 24+1° C. for 6 minutes. The durations of struggling, active movement and immobility in the test is recorded by an automatic device. A 15 minutes pre-test was performed 20-24 hours prior to the test. The duration of immobility is used as a parameter of despair in the rodents.
160-250 g of male Wistar rats were purchased from NSC (National Science Council, Taipei Taiwan). The animals were placed at constant ambient temperature (25±1° C.) with food and water available and on a 12:12-h LD cycle (lights on at 06:00, off at 18:00.)
The FST test as mentioned herein was performed.

For CN(C)CCCN1c2ccccc2CCc2ccccc21 [Imipramine], the “duration of immobility (in words)” value was “reduction in the duration of immobility”.
